# Assay results published in patent US11278509B2, “Lithium salts of N-substituted glycine compounds and uses thereof” (SyneuRx International (Taiwan) Corp., priority 2017, dated 2022).
# Experiments:
# Assay type in all cases: in vivo, C57BL/6J male mice
# MK801-treated mice [1] = test: Open field task, MK801-induced hyper-locomotion; conditions: for effect on MK-801 induced hyper-locomotion activity (travel distance, open field): 60 minutes
# Description: (§1) All C57BL/6J male mice were purchased from Laboratory Animal Center of the College of Medicine of National Taiwan University. The mice were group housed (3-5 mice per cage) with food and water available ad libitum in polysulfone ventilated cages (Alternative Design, AR, USA) in the animal rooms of the Psychology Department of National Taiwan University. The colony was maintained on a 12/12-h light/dark cycle at the temperature of 22±2° C. and all behavioral studies were performed during dark cycle. All animals used in this study were adult mice (at least 2.5 months of age). All animal procedures were performed according to the protocols approved by Animal Care and Use Committee of National Taiwan University.
# (§2) MK801, also known as dizocilpine, is an antagonist of NMDA receptor. Mice in Groups 2-6 were received an acute administration of MK-801 (a NMDA receptor antagonist, dissolved in normal saline, 0.1 or 0.2 mg/kg, i.p.) 20 min prior to behavioral tests. Mice in Groups 3-6 were received an oral gavage of N-methylglycine or lithium N-methylglycine, respectively (dissolved in PBS) 15 min prior to MK801 administration. The […] molarities of lithium N-methylglycine (300 mg/kg and 1000 mg/kg) were equal to those of N-methylglycine (278 mg/kg and 927 mg/kg), respectively.
# (§3) Two cohorts ([…]) of mice were used in the present study, the cohort 1 (48 mice) were sequentially tested with open field (for MK801-induced hyper-locomotion) and pre-pulse inhibition (for sensor-motor gap function) tasks. The mice in cohort 2 (34 mice) were sequentially tested with Barnes maze (spatial learning and memory) task.
# The open field task is a common measure of novel environment-induced exploratory behavior and general activity in both mice and rats. In the present study, the mice were placed in a Plexiglas cage (37.5 cm×21.5 cm×18 cm) under 50-65 lux light intensity, and their spontaneous locomotor activity was measured for 60 minutes using the EthoVision video tracking system (Noldus Information Technology, the Netherlands). The travel distance of each mouse was measured as an index of locomotion activity.
# MK801-treated mice [2] = test: Barnes maze task, spatial learning and memory; conditions: MK-801 0.2 mg/kg i.p.
# Description: as §1, §2, §3
# Mice were tested in a Barnes maze to examine spatial learning and memory as described previously (Barnes, 1979). This Barnes maze paradigm has been commonly examined in mouse models of CNS disorders, including, but not limited to, schizophrenia, depression, obsessive compulsive disorder, post-traumatic stress disorder, addiction disorders, Alzheimer's disease, frontotemporal dementia, Parkinson's disease, Duchenne muscular dystrophy, stroke, and Fragile X syndrome (see Cook et al., 2014; Gotz and Ittner, 2008; Hendriksen and Vles, 2008; Conklin et al., 2000; Song et al., 2006; Lai et al., 2014; Vasterling et al., 2002; Hyman, 2005; Schaar et al., 2010; Santos et al., 2014; Zhu et al., 2007; Deckersbach et al., 2000). The testing apparatus was an elevated (50 cm above the floor) circular Plexiglas plate (100 cm in diameter) with 20 holes (7 cm in diameter, 7 cm between holes) evenly spaced around the perimeter. Mice were trained on the plate to identify an escape box (25×8×6 cm) hidden behind the target hole, which was designated as an analog to the hidden platform in the Morris water maze task. The location of the target hole was selected for a given mouse but randomized across mice. Mice were initially placed in the center of the plate covered by an opaque cylinder, and the cylinder was removed 10 s after the beginning of the trial with both an aversive tone (440 Hz, 85 dB) and light (100 lux) switched on. […] The spatial memory was measured by the “probe test.” All the training trials and the probe tests were videotaped for 3 min, and then the escape latency for the training trials and the percentage of time in different quadrants (target, left, right, and opposite) during the probe test were analyzed. […]
# MK801-treated mice [3] = test: Pre-pulse inhibition task, sensorimotor gating
# Description: as §1
# MK801, also known as dizocilpine, is an antagonist of NMDA receptor. Mice in Groups 2-6 were received an acute administration of MK-801 (a NMDA receptor antagonist, dissolved in normal saline, 0.1 or 0.2 mg/kg, i.p.) 20 min prior to behavioral tests. […]
# Pre-pulse inhibition was used as an index of sensorimotor gating function using SR-LAB startle apparatus (San Diego Instruments, San Diego, Calif., USA). […] The percentage of pre-pulse inhibition was evaluated by the following formula: % PPI=100×[(PA score)−(pp-P score)]/(PA score), where the PA score was the average of the PA value in the middle blocks.
# [4] = MK-801 0.1 or 0.2 mg/kg i.p. 20 min prior to test
structure (smiles),measurement,setting,value
"CNCC(=O)O [N-methylglycine, reference compound]","effect on MK-801 induced hyper-locomotion activity (travel distance, open field)",MK801-treated mice [1]; 927 mg/kg oral gavage 15 min prior to MK801 i.p.,marginally effective
same,memory phase (probe test) after MK-801 induced memory deficit,MK801-treated mice [2]; dose not stated,not effective
"C[C@]12N[C@H](Cc3ccccc31)c1ccccc12 [MK-801, dizocilpine, reference compound]",sensorimotor gating function in the pre-pulse inhibition test compared to the control group,MK801-treated mice [3]; [4],induced the sensorimotor gating function deficit
same,locomotion in the open field test compared to the control group,MK801-treated mice [1]; [4],induced the hyper-locomotion
same,learning ability and memory in the Barnes maze task compared to the control group,MK801-treated mice [2],poor learning ability and memory deficit
CNCC(=O)O.[Li] [lithium N-methylglycine],effect on MK-801 induced deficit in pre-pulse inhibition (% PPI),"MK801-treated mice [3]; 300 mg/kg and 1000 mg/kg oral gavage + MK801, prepulse 78, 82, 90 dB, especially at 90 dB",alleviated
same,dose dependence of effect on MK-801 induced hyper-locomotion,MK801-treated mice [1]; 300 mg/kg and 1000 mg/kg oral gavage + MK-801,Dose-dependent effect
same,"effect on MK-801 induced hyper-locomotion activity (travel distance, open field)",MK801-treated mice [1]; 300 mg/kg oral gavage 15 min prior to MK801 i.p.,effective
same,"effect on MK-801 induced hyper-locomotion activity (travel distance, open field)",MK801-treated mice [1]; 1000 mg/kg oral gavage 15 min prior to MK801 i.p.,effective
same,"reducing hyperactivity induced by MK-801, compared with N-methylglycine",MK801-treated mice [1]; equal molarities: 300/1000 mg/kg vs 278/927 mg/kg,much more effective than N-methylglycine
same,learning phase (escape latency in training trials) after MK-801 induced learning deficit,MK801-treated mice [2]; 1000 mg/kg oral gavage,enhances the learning
same,"recovery of memory deficit induced by MK-801, compared with N-methylglycine",MK801-treated mice [2],much superior as compared with N-methylglycine
same,"memory phase (time in target zone, probe test) after MK-801 induced memory deficit",MK801-treated mice [2]; high dose (1000 mg/kg) oral gavage,completely ameliorated the memory deficit
